Results taken from patent US5663148A, “Anaphylatoxin receptor ligands containing lipophilic residues” (Abbott Laboratories, priority 1994, dated 1997).
Where a SMILES comes first, the peptide text is derived from it. [ ]: non-standard residue; d: D form. The star is where a group is joined. d(hhPhe) = N[C@H](CCCc1ccccc1)C(=O)O; hhPhe = N[C@@H](CCCc1ccccc1)C(=O)O; Cha = N[C@@H](CC1CCCCC1)C(=O)O; X10 = O=C(Cc1c[nH]c2ccccc12)*; X1 = O=C(CC1CNc2ccccc21)*; X12 = CC(c1ccccc1)*; Bn = c1ccc(C*)cc1

molecular target: T1, C5a receptor (Homo sapiens, UniProt P21730); test: Anaphylatoxin (C5a) receptor binding Ki determination, 125I-C5a on PMNL membrane fragments; conditions: read-out: Ki (In vitro C5a Receptor Binding Potency)
T1 construct: from tissue; host or cells: polymorphonuclear leukocyte (PMNL) membrane fragments
T1 sequence (P21730 1-350): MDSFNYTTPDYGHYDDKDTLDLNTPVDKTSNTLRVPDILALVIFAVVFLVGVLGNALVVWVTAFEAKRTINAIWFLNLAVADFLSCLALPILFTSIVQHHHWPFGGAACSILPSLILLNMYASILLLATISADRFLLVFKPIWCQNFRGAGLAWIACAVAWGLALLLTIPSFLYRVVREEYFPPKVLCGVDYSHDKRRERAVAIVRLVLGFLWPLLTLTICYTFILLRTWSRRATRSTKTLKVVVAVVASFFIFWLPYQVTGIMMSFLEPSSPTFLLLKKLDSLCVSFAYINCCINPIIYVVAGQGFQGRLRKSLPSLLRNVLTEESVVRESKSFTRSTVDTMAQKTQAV
Method: The membrane-bound radiolabeled C5a was separated from the free radiolabeled C5a by filtration, and the recovered gamma radioactivity was measured. […] Free and membrane-bound ligand were separated by filtration.

**Q.** How did the Ki turn out when `CC(C)C[C@H](NC(=O)[C@H](C)NC(=O)[C@H](CC1CCCCC1)NC(=O)[C@@H]1CCCN1C(=O)[C@H](CCCCN)NC(=O)CN)C(=O)N[C@H](CSCc1ccccc1)C(=O)N[C@@H](CCCNC(=N)N)C(=O)O` [Example 31, H-Glycyl-Lysyl-Propyl-{(2S)-2-Amino-3-cyclohexylpropanoyl}-Alanyl-Leucyl-DCysteinyl(S-benzyl)-Arginyl-OH] (H-GKP[Cha]AL[dC](Bn)R-OH) was run?
**A.** 1.1 µM

**Q.** With `CC(C)C[C@H](NC(=O)[C@H](C)NC(=O)[C@H](CC1CCCCC1)NC(=O)CNC(=O)CCCCCN)C(=O)NC(CCCc1ccccc1)C(=O)N[C@@H](CCCNC(=N)N)C(=O)O` (single isomer, unassigned) [Example 32] as the compound, how does the Ki read?
**A.** 10 µM

**Q.** `CC(C)[C@H](NC(=O)CNC(=O)[C@H](CC1CCCCC1)NC(=O)CCCCCN)C(=O)NC(CCCc1ccccc1)C(=O)N[C@@H](CCCNC(=N)N)C(=O)O` (single isomer, unassigned) [Example 102, N-(6-Aminohexanoyl)-{(2S)-2-Amino-3-cyclohexylpropanoyl}-Glycyl-Valyl-{(FFS)-2-Amino-5-phenylpentanoyl}-Arginyl-OH] was tested. Which Ki did it give?
**A.** 21.7 µM

**Q.** For `CC(C)C[C@H](NC(=O)CNC(=O)[C@H](CC1CCCCC1)N(C)C(=O)CCCCCCN)C(=O)NC(CCCc1ccccc1)C(=O)N[C@@H](CCCNC(=N)N)C(=O)O` (single isomer, unassigned) [Example 76], which Ki is on record?
**A.** 1.5 µM

**Q.** Which Ki does the source give for `CC(C)C[C@H](NC(=O)[C@H](C)NC(=O)[C@H](CC1CCCCC1)NC(=O)[C@@H]1CCCN1C(=O)[C@@H](N)CCCCN)C(=O)NC(CCCc1ccccc1)C(=O)N[C@@H](CCCNC(=N)N)C(=O)O` (single isomer, unassigned) [Example 68] here?
**A.** 14 µM

**Q.** With `CC(C)C[C@H](NC(=O)CNC(=O)[C@@H](N)CSC(C)c1ccccc1)C(=O)N[C@H](CCCc1ccccc1)C(=O)N[C@@H](CCCNC(=N)N)C(=O)O` (stereo partly drawn) [Example 91, H-Cysteinyl(S-1-phenethyl)-Glycyl-Leucyl-{(R)-2-Amino-5-phenylpentanoyl}-Arginyl-OH] (H-C(X12)GL[d(hhPhe)]R-OH) as the compound, how does the Ki read?
**A.** 0.39 µM

**Q.** For `CC(C)C[C@H](NC(=O)[C@H](CCCCN)NC(=O)[C@@H](N)CC1CCCCC1)C(=O)NC(CCCc1ccccc1)C(=O)N[C@@H](CCCNC(=N)N)C(=O)O` (single isomer, unassigned) [Example 97], which Ki is on record?
**A.** 8.2 µM

**Q.** Which Ki does the source give for `CC(C)C[C@H](NC(=O)CNC(=O)[C@H](Cc1ccccc1)NC(=O)CCCCCN)C(=O)NC(CCCc1ccccc1)C(=O)N[C@@H](CCCNC(=N)N)C(=O)O` (single isomer, unassigned) [Example 125, N-(6-Aminohexanoyl)-Phenylalanyl-Glycyl-Leucyl-{(R/S)-2-Amino-5-phenylpentanoyl}-Arginyl-OH] here?
**A.** 0.83 µM

**Q.** How did the Ki turn out when `CC(C)C[C@H](NC(=O)CNC(=O)[C@H](CCC1CCCCC1)NC(=O)CCCCCN)C(=O)NC(CCCc1ccccc1)C(=O)N[C@@H](CCCNC(=N)N)C(=O)O` (single isomer, unassigned) [Example 137] was run?
**A.** 4.2 µM

**Q.** `CC(C)C[C@H](NC(=O)CN(C)C(=O)[C@H](CC1CCCCC1)NC(=O)CCCCCCN)C(=O)NC(CCCc1ccccc1)C(=O)N[C@@H](CCCNC(=N)N)C(=O)O` (single isomer, unassigned) [Example 60] was tested. Which Ki did it give?
**A.** 19 µM

**Q.** Which Ki does the source give for `CC(C)C[C@H](NC(=O)[C@H](C)NC(=O)[C@H](CC1CCCCC1)NC(=O)[C@@H]1CCCN1C(=O)[C@H](CCCCN)NC(=O)[C@@H](N)Cc1ccccc1)C(=O)N[C@@H](CCCc1ccccc1)C(=O)N[C@@H](CCCNC(=N)N)C(=O)O` [Example 3, H-Phenylalanyl-Lysyl-Prolyl-{(2S)-2-Amino-3-cyclohexylpropanoyl}-Alanyl-Leucyl-{(S)-2-Amino-5-phenylpentanoyl}-Arginyl-OH] (H-FKP[Cha]AL[hhPhe]R-OH) here?
**A.** 0.013 µM

**Q.** `CSCC[C@H](NC(=O)[C@H](CC(=O)O)NC(=O)[C@@H](N)CCCCN)C(=O)N[C@@H](CCC(N)=O)C(=O)N[C@@H](CC(C)C)C(=O)NC(CCCc1ccccc1)C(=O)N[C@@H](CCCNC(=N)N)C(=O)O` (single isomer, unassigned) [Example 39, H-Lysyl-Aspartyl-Methionyl-Glutaminyl-Leucyl-{(R/S)-2-Amino-5-phenylpentanoyl}-Arginyl-OH] was tested. Which Ki did it give?
**A.** 71 µM

**Q.** Which Ki does the source give for `CSCC[C@H](NC(=O)[C@H](CC(=O)O)NC(=O)[C@@H](N)CCCCN)C(=O)N[C@@H](CCC(N)=O)C(=O)N[C@@H](CC(C)C)C(=O)NC(CCCc1ccccc1)C(=O)N[C@@H](CCCNC(=N)N)C(=O)O` (single isomer, unassigned) [Example 40, H-Lysyl-Aspartyl-Methionyl-Glutaminyl-Leucyl-{(R/S)-2-Amino-5-phenylpentanoyl}-Arginyl-OH] here?
**A.** 1.1 µM

**Q.** For `CC(C)C[C@H](NC(=O)CN(C)C(=O)[C@H](CC1CCCCC1)NC(=O)CCCCCCN)C(=O)NC(CCCc1ccccc1)C(=O)N[C@@H](CCCNC(=N)N)C(=O)O` (single isomer, unassigned) [Example 61], which Ki is on record?
**A.** 3.2 µM

**Q.** With `CC(C)C[C@H](NC(=O)CNC(=O)[C@H](CC1CCCCC1)NC(=O)CCCCN)C(=O)NC(CCCc1ccccc1)C(=O)N[C@@H](CCCNC(=N)N)C(=O)O` (single isomer, unassigned) [Example 140] as the compound, how does the Ki read?
**A.** 18.6 µM

**Q.** Which Ki does the source give for `CC(C)C[C@H](NC(=O)[C@@H](C)NC(=O)[C@H](CC1CCCCC1)NC(=O)CCCCCN)C(=O)NC(CCCc1ccccc1)C(=O)N[C@@H](CCCNC(=N)N)C(=O)O` (single isomer, unassigned) [Example 127] here?
**A.** 23.3 µM

**Q.** `N=C(N)NCCC[C@H](NC(=O)C(CCCc1ccccc1)NC(=O)CN(Cc1ccccc1)C(=O)[C@H](CCCCN)NC(=O)[C@@H](N)Cc1ccccc1)C(=O)O` (single isomer, unassigned) [Example 94, H-Phenylalanyl-Lysyl-Glycyl(N-benzyl)-{(R/S)-2-Amino-5-phenylpentanoyl}-Arginyl-OH] was tested. Which Ki did it give?
**A.** 5.8 µM

**Q.** How did the Ki turn out when `CC(C)C[C@H](NC(=O)CNC(=O)[C@H](CC1CCCCC1)N(C)C(=O)CCCCN)C(=O)NC(CCCc1ccccc1)C(=O)N[C@@H](CCCNC(=N)N)C(=O)O` (single isomer, unassigned) [Example 37] was run?
**A.** 3.2 µM

**Q.** How did the Ki turn out when `CC(=O)N[C@@H](CC1CCCCC1)C(=O)NCC(=O)N[C@@H](CC(C)C)C(=O)NC(CCCc1ccccc1)C(=O)N[C@@H](CCCNC(=N)N)C(=O)O` (single isomer, unassigned) [Example 46, N-Acetyl-{(2S)-2-Amino-3-cyclohexylpropanoyl}-Glycyl-Leucyl-{(R/S)-2-Amino-5-phenylpentanoyl}-Arginyl-OH] was run?
**A.** 22 µM

**Q.** For `CC(C)C[C@H](NC(=O)CNC(=O)C=C1CNc2ccccc21)C(=O)N[C@H](CCCc1ccccc1)C(=O)N[C@@H](CCCNC(=N)N)C(=O)O` (single isomer, unassigned) [Example 66], which Ki is on record?
**A.** 0.046 µM

**Q.** `CC(C)C[C@H](NC(=O)[C@@H](CCCCN)NC(=O)[C@@H](N)CC1CCCCC1)C(=O)NC(CCCc1ccccc1)C(=O)N[C@@H](CCCNC(=N)N)C(=O)O` (mixture of isomers) [Example 98, H-{(2S)-2-Amino-3-cyclohexylpropanoyl}-DLysyl-Leucyl-{(R/S)-2-Amino-5-phenylpentanoyl}-Arginyl-OH] was tested. Which Ki did it give?
**A.** 44.7 µM

**Q.** For `CC(C)C[C@H](NC(=O)CNC(=O)[C@H](CCC1CCCCC1)NC(=O)CCCCCN)C(=O)NC(CCCc1ccccc1)C(=O)N[C@@H](CCCNC(=N)N)C(=O)O` (single isomer, unassigned) [Example 138], which Ki is on record?
**A.** 0.33 µM

**Q.** With `CC(C)C[C@H](NC(=O)CCNC(=O)[C@H](CC1CCCCC1)NC(=O)CCCCCN)C(=O)NC(CCCc1ccccc1)C(=O)N[C@@H](CCCNC(=N)N)C(=O)O` (single isomer, unassigned) [Example 114] as the compound, how does the Ki read?
**A.** 18.6 µM

**Q.** For `CC(C)C[C@H](NC(=O)CNC(=O)CC1CNc2ccccc21)C(=O)N[C@H](CCCc1ccccc1)C(=O)N[C@@H](CCCNC(=N)N)C(=O)O` (stereo partly drawn) [Example 80, N-[(Indoline-3-yl)acetyl]-Glycyl-Leucyl-{(R)-2-Amino-5-phenylpentanoyl}-Arginyl-OH] (X1-GL[d(hhPhe)]R-OH), which Ki is on record?
**A.** 0.87 µM

**Q.** Which Ki does the source give for `CC(C)C[C@H](NC(=O)CNC(=O)[C@H](CC1CCCCC1)NC(=O)[C@@H](N)CCCCN)C(=O)NC(CCCc1ccccc1)C(=O)N[C@@H](CCCNC(=N)N)C(=O)O` (single isomer, unassigned) [Example 42, H-Lysyl-{(2S)-2-Amino-3-cyclohexylpropanoyl}-Glycyl-Leucyl-{(R/S)-2-Amino-5-phenylpentanoyl}-Arginyl-OH] here?
**A.** 0.45 µM

**Q.** For `CC(C)C[C@H](NC(=O)CNC(=O)Cc1c[nH]c2ccccc12)C(=O)N[C@H](CCCc1ccccc1)C(=O)N[C@@H](CCCNC(=N)N)C(=O)O` [Example 50, N-(Indole-3-acetyl)-Glycyl-Leucyl-{(R)-2-Amino-5-phenylpentanoyl}-Arginyl-O] (X10-GL[d(hhPhe)]R-OH), which Ki is on record?
**A.** 0.19 µM

**Q.** `N=C(N)NCCC[C@H](NC(=O)C(CCCc1ccccc1)NC(=O)CN(Cc1ccccc1)C(=O)[C@H](CCCCN)NC(=O)[C@@H](N)Cc1ccccc1)C(=O)O` (single isomer, unassigned) [Example 95, H-Phenylalanyl-Lysyl-Glycyl(N-benzyl)-{(R/S)-2-Amino-5-phenylpentanoyl}-Arginyl-OH] was tested. Which Ki did it give?
**A.** 34 µM

**Q.** `CC(C)C[C@H](NC(=O)CNC(=O)[C@H](CC1CCCCC1)NC(=O)[C@H](N)CCCCN)C(=O)NC(CCCc1ccccc1)C(=O)N[C@@H](CCCNC(=N)N)C(=O)O` (single isomer, unassigned) [Example 56] was tested. Which Ki did it give?
**A.** 26.8 µM

**Q.** Which Ki does the source give for `CC(C)C[C@H](NC(=O)CNC(=O)[C@@H](N)Cc1ccccc1)C(=O)N[C@H](CCCc1ccccc1)C(=O)N[C@@H](CCCNC(=N)N)C(=O)O` [Example 116, H-Phenylalanyl-Glycyl-Leucyl-{(R)-2-Amino-5-phenylpentanoyl}-Arginyl-OH] (H-FGL[d(hhPhe)]R-OH) here?
**A.** 0.63 µM
